Converted amounts (≈) assume the structure as drawn.
How the values were obtained:
[1] = system: Mycobacterium tuberculosis; assay: Antimycobacterial activity against Mycobacterium tuberculosis H37Rv assessed as inhibition of bacterial growth by resazurin dye based fluorescence analysis; type: functional
[2] = system: Mycobacterium tuberculosis; assay: Potentiation of ethionamide induced antibacterial activity against Mycobacterium tuberculosis H37Rv expressing GFP incubated for 5 days by fluorescence based analysis; type: functional, organism-based; details: 120 h
[3] = system: Mycobacterium tuberculosis; assay: Antimycobacterial activity against Mycobacterium tuberculosis H37Rv infected in human THP-1 cells assessed as inhibition of bacterial growth; type: functional, organism-based

COc1ccc(Cn2cc(-c3ccc(S(=O)(=O)NCCO)cc3)nn2)cc1
MIC [1]: 0.1 µM (≈ 0.0388 µg/mL)

NC(=O)CNS(=O)(=O)c1ccc(-c2cn(Cc3ccc(F)cc3)nn2)cc1
MIC [1]: 0.1 µM (≈ 0.0389 µg/mL)

Cc1cc(Cn2nnc(-c3ccc(S(=O)(=O)NCC(N)=O)cc3)n2)ccn1
MIC [1]: 0.1 µM (≈ 0.0387 µg/mL)

COc1cc(-c2nnn(Cc3ccc(C#N)cn3)n2)ccc1S(=O)(=O)NCCO
MIC [1]: 0.1 µM (≈ 0.0415 µg/mL)

NC(=O)CNS(=O)(=O)c1ccc(-c2cn(CC3CCC(F)(F)CC3)nn2)cc1
MIC [1]: 0.1 µM (≈ 0.0413 µg/mL)

O=S(=O)(NCCO)c1ccc(-c2nnn(Cc3ccc(F)cn3)n2)cc1F
MIC [1]: 0.1 µM (≈ 0.0396 µg/mL)

CC(c1ccc(F)cc1)n1nnc(-c2ccc(S(=O)(=O)NCCO)cc2)n1 (configuration not stated)
MIC [1]: 0.1 µM (≈ 0.0391 µg/mL)

O=S(=O)(NCCO)c1ccc(-c2cn(Cc3ccc(F)cn3)nn2)cc1
MIC [1]: 0.1 µM (≈ 0.0377 µg/mL)

N#CCNS(=O)(=O)c1ccc(-c2nnn(Cc3ccncn3)n2)cc1
MIC [1]: 0.1 µM (≈ 0.0356 µg/mL)

O=S(=O)(NCCO)c1ccc(-c2nnn(CC3CCCCO3)n2)cc1F (configuration not stated)
MIC [1]: 0.1 µM (≈ 0.0385 µg/mL)

O=S(=O)(NCCO)c1ccc(-c2nnn(CC3CCCCO3)n2)c(F)c1F (configuration not stated)
MIC [1]: 0.1 µM (≈ 0.0403 µg/mL)

NC(=O)CNS(=O)(=O)c1ccc(-c2nnn(Cc3ccc(Cl)cn3)n2)cc1
MIC [1]: 0.1 µM (≈ 0.0408 µg/mL)

C[C@@H](O)CNS(=O)(=O)c1ccc(-c2cn(Cc3ccc(F)cc3)nn2)cc1
MIC [1]: 0.1 µM (≈ 0.039 µg/mL)

O=C(CCC(F)(F)F)N1CCC2(CC1)CC(Br)=NO2
EC50 [2]: < 38 nM | IC50 [3]: 50 nM

COc1cnc(Cn2nnc(-c3ccc(S(=O)(=O)NCC#N)cc3)n2)cn1
MIC [1]: 0.1 µM (≈ 0.0386 µg/mL)

C[C@H](c1ccc(F)cn1)n1nnc(-c2ccc(S(=O)(=O)NCCO)cc2)n1
MIC [1]: 0.1 µM (≈ 0.0392 µg/mL)

O=S(=O)(NCCO)c1c(F)cc(-c2nnn(Cc3ccc(F)cn3)n2)cc1F
MIC [1]: 0.1 µM (≈ 0.0414 µg/mL)

O=S(=O)(NCCO)c1ccc(-c2nnn(CC3CCOCC3)n2)cc1F
MIC [1]: 0.1 µM (≈ 0.0385 µg/mL)

Cc1ccc(Cn2nnc(-c3ccc(S(=O)(=O)NCCO)cc3)n2)cn1
MIC [1]: 0.1 µM (≈ 0.0374 µg/mL)

O=S(=O)(NCCO)c1ccc(-c2nnn(CC3CCOCC3)n2)cc1
MIC [1]: 0.1 µM (≈ 0.0367 µg/mL)

COc1cc(-c2nnn(Cc3ccncc3)n2)ccc1S(=O)(=O)NCCO
MIC [1]: 0.1 µM (≈ 0.039 µg/mL)

N#CCNS(=O)(=O)c1ccc(-c2nnn(Cc3ccncc3)n2)cc1
MIC [1]: 0.1 µM (≈ 0.0355 µg/mL)

CC(c1ccc(F)cc1)n1cc(-c2ccc(S(=O)(=O)NCCO)cc2)nn1 (configuration not stated)
MIC [1]: 0.1 µM (≈ 0.039 µg/mL)

COc1cc(-c2nnn(Cc3ccncc3)n2)ccc1S(=O)(=O)NCC(N)=O
MIC [1]: 0.1 µM (≈ 0.0403 µg/mL)

Cc1ccc(Cn2nnc(-c3ccc(S(=O)(=O)NCC(N)=O)cc3)n2)nc1
MIC [1]: 0.1 µM (≈ 0.0387 µg/mL)

O=S(=O)(NCCO)c1ccc(-c2cn(Cc3ccc(F)cc3)nn2)cc1
MIC [1]: 0.1 µM (≈ 0.0376 µg/mL)

O=S(=O)(NCCO)c1ccc(-c2nnn(Cc3cccnc3)n2)cc1
MIC [1]: 0.1 µM (≈ 0.036 µg/mL)

COC1=NOC2(CCN(C(=O)CCCl)CC2)C1
EC50 [2]: < 38 nM | IC50 [3]: 50 nM

COc1ccc(Cn2nnc(-c3ccc(S(=O)(=O)NCC#N)cc3)n2)cn1
MIC [1]: 0.1 µM (≈ 0.0385 µg/mL)

O=S(=O)(NCCO)c1ccc(-c2nnn(Cc3ccc(F)cn3)n2)cc1Cl
MIC [1]: 0.1 µM (≈ 0.0413 µg/mL)

O=C(CCCl)N1CCC2(CC1)CC(C(F)(F)F)=NO2
EC50 [2]: < 38 nM | IC50 [3]: 50 nM

CCC1=NOC2(CCN(C(=O)CCC(F)(F)F)CC2)C1
EC50 [2]: < 38 nM | IC50 [3]: 50 nM

CCOC1=NOC2(CCN(C(=O)CCC(F)(F)F)CC2)C1
EC50 [2]: < 38 nM | IC50 [3]: 50 nM

Cc1cc(S(=O)(=O)NCCO)c(F)cc1-c1nnn(Cc2ccc(F)cn2)n1
MIC [1]: 0.1 µM (≈ 0.041 µg/mL)

O=C(CCC(F)(F)F)N1CCC2(CC1)CC(OCC(F)(F)F)=NO2
EC50 [2]: < 38 nM | IC50 [3]: 50 nM

O=C(CCC(F)(F)F)N1CCC(c2cnc(F)c(F)c2)CC1
EC50 [2]: < 150 nM | IC50 [3]: 10 nM

O=S(=O)(NCCO)c1ccc(-c2nnn(Cc3ccc(F)cc3)n2)cc1F
MIC [1]: 0.1 µM (≈ 0.0395 µg/mL)

CCCOC1=NOC2(CCN(C(=O)CCC(F)(F)F)CC2)C1
EC50 [2]: < 38 nM | IC50 [3]: 50 nM

CCCCCCOC1=NOC2(CCN(C(=O)CCC(F)(F)F)CC2)C1
EC50 [2]: < 38 nM | IC50 [3]: 50 nM

O=C(CCC(F)(F)F)N1CCC(c2ncc(F)cc2F)CC1
EC50 [2]: < 150 nM | IC50 [3]: 10 nM

NC(=O)CNS(=O)(=O)c1ccc(-c2nnn(Cc3ccncc3)n2)cc1
MIC [1]: 0.1 µM (≈ 0.0373 µg/mL)

O=S(=O)(NCCO)c1ccc(-c2nnn(CC3CCCCC3)n2)cc1
MIC [1]: 0.1 µM (≈ 0.0365 µg/mL)

O=S(=O)(NCCO)c1ccc(-c2nnn(Cc3ccc(OC(F)(F)F)cc3)n2)cc1
MIC [1]: 0.1 µM (≈ 0.0443 µg/mL)

N#CCNS(=O)(=O)c1ccc(-c2cn(Cc3ccc(F)cn3)nn2)cc1
MIC [1]: 0.1 µM (≈ 0.0372 µg/mL)

O=C(CCC(F)(F)F)N1CCC(F)(c2cccnc2)CC1
EC50 [2]: < 150 nM | IC50 [3]: 10 nM

COC(=O)CNS(=O)(=O)c1ccc(-c2nnn(Cc3ccncc3)n2)cc1
MIC [1]: 0.1 µM (≈ 0.0388 µg/mL)

Cc1cc(S(=O)(=O)NCCO)ccc1-c1nnn(CC2CCCCO2)n1 (configuration not stated)
MIC [1]: 0.1 µM (≈ 0.0381 µg/mL)

COc1cc(-c2nnn(Cc3ccc(F)cc3)n2)ccc1S(=O)(=O)NCCO
MIC [1]: 0.1 µM (≈ 0.0407 µg/mL)

O=S(=O)(NCCO)c1c(F)cc(-c2nnn(CC3CCCCO3)n2)cc1F (configuration not stated)
MIC [1]: 0.1 µM (≈ 0.0403 µg/mL)

COc1cc(-c2nnn(Cc3ccc(C#N)cc3)n2)ccc1S(=O)(=O)NCC(N)=O
MIC [1]: 0.1 µM (≈ 0.0427 µg/mL)

CNS(=O)(=O)c1ccc(-c2nnn(Cc3ccncc3)n2)cc1OC
MIC [1]: 0.1 µM (≈ 0.036 µg/mL)

From ChEMBL document CHEMBL5244273, “Tuberculosis: An Overview of the Immunogenic Response, Disease Progression, and Medicinal Chemistry Efforts in the Last Decade toward the Development of Potential Drugs for Extensively Drug-Resistant Tuberculosis Strains” (J Med Chem, 2021)
